From ChEMBL document CHEMBL1201862, “PubChem BioAssay data set” (2004) come the findings set out here.

What all share (test): inhibition of tumour cell growth, NCI panel, 48 h
For test [1], the system named is 786-0.
Test [2] relates to CCRF-CEM.
In test [3] the test system is HCT-116.
Test [4] has as its system HT-29.
Test [5] deals with K562.
Test [6] concerns KM12.
Test [7] has as its system LOX IMVI.
The test system of test [8] is MCF7.
The test system of test [9] is MDA-MB-231.
Test [10] concerns MDA-MB-435.
In test [11] the test system is MDA-N.
Test [12] deals with Malme-3M.
For test [13], the system named is NCI-H226.
Test [14] has as its system OVCAR-5.
Test [15] deals with SF-268.
In test [16] the test system is SF-539.
The subject of test [17] is SK-MEL-5.
In test [18] the test system is SK-OV-3.
Test [19] deals with T47D.
In test [20] the test system is U-251.

Molecules are shown by their SMILES.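 Five concentrations, 48 hours, 96-well plates. Here, GI50 denotes the concentration required for 50% inhibition of growth.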 Activity calls are given as the source filed them. No stated cut-off is given here; in the data, active = GI50 up to about 1.1 µM and inactive = higher.

For `COc1cc(CCNC2=CC(=O)c3cccnc3C2=O)ccc1O`, the GI50 in test [1] is 1370 nM (inactive); in test [2], 3640 nM (inactive); in test [3], 1840 nM (inactive); in test [4] it was 1970 nM (inactive); in [5] it was 483 nM (active); in [6] it was 1950 nM (inactive). In addition, the GI50 in test [7] is 284 nM (active); in test [8], 160 nM (active); in [9], 736 nM (active); in [10], 173 nM (active); in [11], 167 nM (active); in test [12], 1100 nM (active). Further, the GI50 in [13] is 1840 nM (inactive); in [14], 1630 nM (inactive); in [15], 2070 nM (inactive); in test [16], 1590 nM (inactive); in [17] it was 385 nM (active); in test [18], 2520 nM (inactive). Moreover, the GI50 in test [19] was 8510 nM (inactive); in test [20], 766 nM (active).
